Results from patent US20240122865A1, “Methods of Protecting RNA” (Pfizer Inc., priority 2021, published 2024).
Where “and” joins values, the source holds several entries; their conditions need not be identical. Equal entries are not always repeated.

Tests used:
Format in all cases: biochemical, Trichoderma atroviride
FgenL model RNA [1] = experiment: TapeStation Assay, FgenL model RNA; parameters: Conc. FgenL#1 / Conc. FgenL#2: unit not given here; conditions: for % Control N = 1 / % Control N = 2 / % Control Average: FgenL RNA, 20 mM amino acids, 50 mM CAPS pH 11, 50° C. 15 min; for % Control N = 1 / % Control N = 2: vs Time 0; for % Control Average: vs Time 0, Avg N=2; for Conc. FgenL#1 / Conc. FgenL#2: intact FgenL RNA after 15 min at 50° C.; for Conc. FgenL#1: 20 mM amino acids in 50 mM CAPS pH 11, run #1; for Conc. FgenL#2: 20 mM amino acids in 50 mM CAPS pH 11, run #2
Description: (§1) These assays were performed with amino acids and compared to a no-degradation baseline control to gauge degree of protection imparted by the amino acid. Multiple functional assay approaches were used where differing endpoints were measured including a droplet digital PCR (ddPCR) assay where intact RNA sequence was quantitated, a size exclusion base hydrolysis degradation assay that used a size exclusion column to determine the degree of degradation occurring to an mRNA construct, and finally, a TapeStation assay that utilizes capillary electrophoresis and optical detection to measure intact RNA. […] Affinity selection by mass spectrometry (ASMS), native electrospray ionization mass spectrometry (nESI-MS) and nuclear magnetic resonance (NMR) may be used as several complementary approaches to ascertain compound binding to RNA. The latter techniques utilize MS to measure mass of bound compound alone (ASMS), or mass of RNA and bound compound (nESI-MS). The nESI-MS and NMR studies may be conducted to provide direct analytical quantification of resulting complex via measurement of mass (nESI-MS) or chemical shifts (NMR). The ASMS experiment is conducted to determine saturation binding of the compound to RNA where resulting apparent binding constants (KD,App) may be generated. Further descriptions of the functional and binding assays are provided in the section below.
(§2) In principle, samples are loaded to the instrument where electrophoresis separates component RNA's on the basis of mass, and subsequently analyzes these optically as they travel through the capillary.
(§3) RNA samples were diluted to the appropriate concentration to fall within the linear range of detection for the RNA ScreenTape Assay. Model Chi18 or FgenL RNAs were diluted to 50 ng/μL in 50 mM CAPS buffer pH 11. Amino acid stocks were made up in 50 mM CAPS pH 11 and re-adjusted to >pH 11 after solubilization. […] The samples were aliquoted to PCR tubes for each time point (Time 0 or 15 minutes). Degradation reaction: Samples were incubated at 50° C. for 0 to 15 minutes in a thermocycler, removed at the appropriate time point and placed on ice. Time 0 samples remained on ice.

Chi18 model RNA [2] = experiment: TapeStation Assay, Chi18 model RNA; parameters: Conc. chi18#1 / Conc. chi18#2: unit not given here; conditions: for % Control N = 1 / % Control N = 2 / % Control Avg.: Chi18 RNA, 20 mM amino acids, 50 mM CAPS pH 11, 50° C. 15 min; for % Control N = 1 / % Control N = 2: vs Time 0; for % Control Avg.: vs Time 0, Avg N=2; for Conc. chi18#1 / Conc. chi18#2: intact Chi18 RNA after 15 min at 50° C.; for Conc. chi18#1: 20 mM amino acids in 50 mM CAPS pH 11, run #1; for Conc. chi18#2: 20 mM amino acids in 50 mM CAPS pH 11, run #2
Description: as §1, §2, §3

FgenL mRNA construct = experiment: Size Exclusion Base Hydrolysis Degradation Assay, FgenL; conditions: 25 mM amino acid; for T0 R1 peak area at 250 nm: FgenL 0.1 mg/mL, 50 mM CAPS, T=0, replicate 1; for T2 R1 peak area at 250 nm / T2 Avg, peak area as percentage of T=0 / T10 R1 peak area at 250 nm / T10 Avg, peak area as percentage of T=0 / T24 Avg, peak area as percentage of T=0 / T24 R1 peak area at 250 nm / T0 Avg, peak area as percentage of T=0: FgenL; for T2 R1 peak area at 250 nm / T2 Avg, peak area as percentage of T=0 / T10 R1 peak area at 250 nm / T10 Avg, peak area as percentage of T=0 / T24 Avg, peak area as percentage of T=0 / T24 R1 peak area at 250 nm: 50 mM CAPS pH 11, room temperature; for T2 R1 peak area at 250 nm / T2 Avg, peak area as percentage of T=0: 2 hrs; for T2 R1 peak area at 250 nm / T10 R1 peak area at 250 nm / T24 R1 peak area at 250 nm: replicate 1; for T10 R1 peak area at 250 nm / T10 Avg, peak area as percentage of T=0: 10 hrs; for T24 Avg, peak area as percentage of T=0 / T24 R1 peak area at 250 nm: 24 hrs; for T0 Avg, peak area as percentage of T=0: T=0 (reference)
Description: Basic assay procedure: RNA samples were diluted to 1.0 mg/mL in DNAase/RNAase free water. Amino acids were dissolved in water to a stock solution of 100 mM and a solution of 500 mM CAPS pH 11 was used. The two mRNA constructs tested were FgenL and Chi18. Each individual sample volume was 50 μL. To determine the amount of 1 M NaOH needed to adjust the final pH to 11.0 after the addition of all sample components, the sample volume was increased 100 fold (5 mL), the volume of 1 M NaOH recorded and this value was translated back down to the 50 μL sample volume.
The mRNA and amino acid were allowed to incubate for one hour prior to the addition of CAPS pH 11. All steps of the assay were conducted at room temperature.
Degradation reaction: After the CAPS addition, the samples were injected onto the Waters H-Class UPLC system to record the first timepoint, T=O. This resulting chromatogram was processed by integrating the area of absorbance at 250 nm for the mRNA construct. Immediately following this timepoint, the pH was adjusted to 11. Subsequent time points (2 hrs, 10 hrs, and 24 hrs) recorded the Absorbance Units (peak area) at 250 nm as a percentage of the peak area determined at T=O. Integration of the chromatogram for subsequent timepoints was conducted by analyzing the area of absorbance at 250 nm contained within the same time window in which the peak eluted in T=0 for the 100% intact mRNA.

Chi18 model RNA [3] = experiment: Droplet Digital Polymerase Chain Reaction (ddPCR) Assay, Chi18; conditions: percent protection, pH 11.0, 30° C., 16 hours, n = 2
Description: (§4) The ddPCR assays measure RNA integrity by converting intact RNA to cDNA by reverse transcription, then performing digital PCR in thousands of nanoliter-sized droplets for each sample. PCR is performed within each droplet, which allows for more sensitive detection of subtle changes in RNA concentration compared to traditional PCR or qPCR. Additionally, primers/probes specific to the 5′ end of the RNA/cDNA transcript(s) are used to assess fragment integrity—e.g. degraded RNA will have fewer 5′ positive droplets. The BioRad QX200 Droplet Digital PCR System was used for the ddPCR workflow.
(§5) Basic assay procedure: RNA samples (Chi18 or FgenL fragments) were diluted to 25 fg/μL or 10 fg/μL, respectively, in 50 mM […] buffer pH 11.0. Amino acid stocks were made up in 50 mM CAPS buffer, pH 11.0 and subsequently re-adjusted to pH 11.0, post solubilization. Amino acid stocks were tested in a dose-response format to determine EC50. An amino acid dilution plate containing a ˜300 mM (or appropriate) top-concentration of amino acid in 50 mM CAPS buffer was serially (half-log) diluted for 10 times. 0.6 μL of this compound dilution plate was spotted into a 96-well PCR plate (Thermo). Sample RNAs were added (6 μL) and incubated with test amino acid as described below.
(§6) Degradation reaction: Treated RNAs were incubated for 16 hours at 30° C. for Chi18 samples or 44° C. for FgenL samples. Upon completion of the degradation reaction, cDNA was made from the intact RNA by Reverse Transcription and ddPCR run for each sample (96 well plates). Positive 5′ droplet values were divided by the total accepted droplet values for each sample and a ratio value generated for each sample.
(§7) EC50 was determined by using a four parameter logistic equation: Y=A+((B−A)/(1+(C/X)D)); where Y is percent protection, X is compound concentration, A and B are minimum and maximum asymptotes, respectively, C is EC50, and D is Hill slope.

FgenL model RNA [4] = conditions: percent protection, pH 11.0, 44° C., 16 hours, n = 2
Description: as §4, §5, §6, §7

SMILES | % Control N = 1 (FgenL model RNA [1]) | % Control N = 2 (FgenL model RNA [1]) | % Control Average (FgenL model RNA [1]) | Conc. FgenL#1 (FgenL model RNA [1]) | Conc. FgenL#2 (FgenL model RNA [1]) | % Control N = 1 (Chi18 model RNA [2]) | % Control N = 2 (Chi18 model RNA [2]) | % Control Avg. (Chi18 model RNA [2]) | Conc. chi18#1 (Chi18 model RNA [2]) | Conc. chi18#2 (Chi18 model RNA [2]) | T24 Avg, peak area as percentage of T=0 (FgenL mRNA construct) | T24 R1 peak area at 250 nm (FgenL mRNA construct) | T0 Avg, peak area as percentage of T=0 (FgenL mRNA construct) | EC50 (Chi18 model RNA [3]) | EC50 (FgenL model RNA [4]) | T0 R1 peak area at 250 nm (FgenL mRNA construct) | T2 Avg, peak area as percentage of T=0 (FgenL mRNA construct) | T2 R1 peak area at 250 nm (FgenL mRNA construct) | T10 Avg, peak area as percentage of T=0 (FgenL mRNA construct) | T10 R1 peak area at 250 nm (FgenL mRNA construct) | also measured
N[C@@H](CS)C(=O)O [Cysteine] | 4.9% | 5.9% | 5.4% | 1.7 | 2.05 | 4.5% | 3.5% | 4.0% | 2.39 | 1.85 | 0.0% | 0 | 100.0% | > 30 mM | > 30 mM |  |  |  |  |  | T0 R1 peak area at 250 nm (FgenL mRNA construct; listed as Cys): 23851 and 18041; T2 R1 peak area at 250 nm (FgenL mRNA construct; listed as Cys): 17633 and 6085; T2 Avg, peak area as percentage of T=0 (FgenL mRNA construct; listed as Cys): 58.8% and 30.1%; T10 R1 peak area at 250 nm (FgenL mRNA construct; listed as Cys): 3767 and 0; T10 Avg, peak area as percentage of T=0 (FgenL mRNA construct; listed as Cys): 8.8% and 0.0%
N[C@@H](CCC(=O)O)C(=O)O [Glutamic acid] | 89.9% | 76.1% | 83.0% | 31 | 26.4 | 76.0% | 94.5% | 85.3% | 40.5 | 50 | 0.0% | 0 | 100.0% | 6.7 mM | 19 mM | 14529 | 73.9% | 10330 | 39.7% | 8449 | 
NC(=O)CC[C@H](N)C(=O)O [Glutamine] | 29.0% | 10.3% | 19.6% | 10 | 3.57 | 15.9% | 17.8% | 16.8% | 8.46 | 9.42 | 0.0% | 0 | 100.0% | 8.8 mM | > 30 mM | 15510 | 25.9% | 5779 | 0.0% | 0 | 
N[C@@H](CCC(=O)N[C@@H](CS)C(=O)NCC(=O)O)C(=O)O [Glutathione] | 42.9% | 35.7% | 39.3% | 14.8 | 12.4 | 29.3% | 26.7% | 28.0% | 15.6 | 14.1 | 0.0% | 0 | 100.0% | > 30 mM | > 30 mM | 16850 | 37.7% | 4627 | 2.3% | 0 | 
